From article PMC5101207, “The Oxidosqualene Cyclase from the Oomycete Saprolegnia parasitica Synthesizes Lanosterol as a Single Product” (Frontiers in Microbiology, 2016)

Biological target: T1, SpLASA (Saprolegnia parasitica, UniProt A0A067BWL7)
T1 construct: gene SPRG_11783; full length, 805 residues (2415 bp amplicon from mycelium cDNA), C-terminal His6 tag (pET-DEST42), E. coli BL21 (DE3), about 91 kDa; not the truncated paralogue SpLASB (SPRG_17895, 472 residues)
T1 sequence (A0A067BWL7 1-805): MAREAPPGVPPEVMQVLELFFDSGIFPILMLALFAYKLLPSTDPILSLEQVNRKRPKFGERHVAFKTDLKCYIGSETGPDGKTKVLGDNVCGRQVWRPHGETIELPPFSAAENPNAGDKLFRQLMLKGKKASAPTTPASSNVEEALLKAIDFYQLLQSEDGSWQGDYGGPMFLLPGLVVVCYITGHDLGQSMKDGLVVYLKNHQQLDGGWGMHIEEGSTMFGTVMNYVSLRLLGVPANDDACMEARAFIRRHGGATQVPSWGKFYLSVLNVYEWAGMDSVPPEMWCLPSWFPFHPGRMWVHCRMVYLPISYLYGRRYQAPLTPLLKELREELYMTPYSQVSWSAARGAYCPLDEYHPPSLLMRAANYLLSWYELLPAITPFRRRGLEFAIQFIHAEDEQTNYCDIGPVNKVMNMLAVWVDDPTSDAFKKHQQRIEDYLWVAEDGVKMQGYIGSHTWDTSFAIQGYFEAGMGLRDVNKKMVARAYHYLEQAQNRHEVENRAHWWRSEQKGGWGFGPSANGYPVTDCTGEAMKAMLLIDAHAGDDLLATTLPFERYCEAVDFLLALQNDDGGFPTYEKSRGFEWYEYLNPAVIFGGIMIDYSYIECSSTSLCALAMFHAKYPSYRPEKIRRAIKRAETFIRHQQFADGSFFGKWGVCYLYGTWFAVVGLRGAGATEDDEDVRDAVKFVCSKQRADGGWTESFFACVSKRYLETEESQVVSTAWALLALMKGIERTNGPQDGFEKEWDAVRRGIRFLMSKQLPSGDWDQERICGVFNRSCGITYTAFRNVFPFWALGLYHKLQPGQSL
Test: GC-MS of silylated sterols after incubation with purified enzyme
Assay type: biochemical
Details: 50 mM sodium phosphate pH 7.4, 25°C, 24 h; 10.7 μg substrate, 37.5-112.5 μg protein

Row | Compound | GC-MS of silylated sterols after incubation with purified enzyme
1 | CC(C)=CCC/C(C)=C/CC/C(C)=C/CC/C=C(\C)CC/C=C(\C)CC[C@@H]1OC1(C)C [2,3-oxidosqualene] | These experiments confirmed the specific conversion of OS into LA.
2 | CC(C)=CCC[C@@H](C)[C@H]1CC[C@@]2(C)C3=C(CC[C@]12C)[C@@]1(C)CC[C@H](O)C(C)(C)[C@@H]1CC3 [lanosterol] | the proportion of LA increased linearly with increasing protein concentration
